Test results: article PMC12346198 (Cancers, 2025)
Read-outs that look alike come from different tables or passages of the source.

What was measured:
[1] = tested on: Primary Male Hepatocytes; test: CCK-8 cytotoxicity assay, primary male hepatocytes; assay type: cell-based; settings: 72 h treatment
Protocol: (§1) The cytotoxicity of compounds was determined by the CCK-8 assay (Cell Counting Kit-8, CK04, Dojindo Molecular Technologies, Kumamoto, Japan). Cell lines were plated at 10,000 cells/well in 96-well plates and incubated overnight to allow for adherence (5% CO2, 37 °C). […] Cells were placed back in the incubator for 72 h treatment. CCK-8 reagent was added, and plates were further incubated 1–4 h as directed by the supplier’s instructions. Optical density was measured using a Biotek Synergy H1 plate reader at 450 nm. Primary hepatocytes were plated at 30,000 cells or 50,000 cells/well and maintained according to the technical information bulletin provided by the supplier. Upon treatment, maintenance media were supplemented with 10% FBS and fresh test compound for all subsequent media changes, as directed.

[2] = Single-dose IV and PO pharmacokinetics in mice; assay type: in vivo, male C57BL/6 mice; settings: for AUC / Cmax / Tmax / clearance: male, C57BL/6, mouse, plasma; for Tmax: read-out: Tmax, Geo Mean; for clearance: single IV dose, 2 mg/kg or molar equivalent, read-out: Systemic clearance following an IV dose (converted)
Protocol: The in-life study and quantitative analysis of plasma samples using LC/MS were performed at Charles River Laboratories, Inc. (Wilmington, MA, USA).

[3] = tested on: HepG2; test: CCK-8 cytotoxicity assay, HepG2; assay type: cell-based, human; settings: 72 h treatment
Protocol: as §1

[4] = tested on: SNU475; test: CCK-8 cytotoxicity assay, SNU475; assay type: cell-based, human; settings: 72 h treatment
Protocol: as §1

[5] = tested on: SNU423; test: CCK-8 cytotoxicity assay, SNU423; assay type: cell-based; settings: Homo sapiens, SNU-423, 72 h treatment
Protocol: as §1

[6] = tested on: SNU475 cells; test: Hollow fiber assay (HFA) model of AR-SV HCC; assay type: in vivo; settings: BID PO one week; niclosamide 75, valine–niclosamide 106.1, valine–compound #7 87.3, compound #7 62.9 mg/kg; nude mice
Text: The hollow fiber procedures were based upon those developed by Hollingshead et al. with technical consultation kindly provided by Drs. Joanna Burdette and Dan Lantvit (University of Illinois Chicago, Chicago, IL, USA). […] In order to utilize a PO dosing approach with the HFA, we extended the traditional HFA timeline to establish angiogenesis, as noted in the literature. […] Hollow fibers (KrosFlo Implant Membranes, M138615, Repligen, Waltham, MA, USA) were filled with 3 × 10^6 SNU475 cells/mL per length and heat-sealed into 2 cm lengths on Day −1. On Day 0, three fibers were implanted into 20-week-old male outbred homozygous athymic nude mice (Foxn1^nu/Foxn1^nu, The Jackson Laboratory, Bar Harbor, ME, USA) subcutaneously parallel to the spine. Following a 14-day waiting period to allow for angiogenesis around the fibers, treatment was initiated. […] On Day 21, mice were euthanized and hollow fibers were explanted. The MTT assay was performed according to the KrosFlo Implant Membrane protocol utilizing Thiazolyl Blue Tetrazolium Bromide (M2128, MilliporeSigma, Burlington, MA, USA).

[7] = tested on: THLE-2; test: CCK-8 cytotoxicity assay, THLE-2; assay type: cell-based; settings: Homo sapiens, 72 h treatment
Protocol: as §1

[8] = molecular target: T1, AR-SV (Homo sapiens, UniProt P10275); test: AR protein ELISA in SNU475 cells; assay type: cell-based; settings: 10 µM, 24 hours, AR ELISA (Figure S3A)
T1 sequence (P10275 1-628): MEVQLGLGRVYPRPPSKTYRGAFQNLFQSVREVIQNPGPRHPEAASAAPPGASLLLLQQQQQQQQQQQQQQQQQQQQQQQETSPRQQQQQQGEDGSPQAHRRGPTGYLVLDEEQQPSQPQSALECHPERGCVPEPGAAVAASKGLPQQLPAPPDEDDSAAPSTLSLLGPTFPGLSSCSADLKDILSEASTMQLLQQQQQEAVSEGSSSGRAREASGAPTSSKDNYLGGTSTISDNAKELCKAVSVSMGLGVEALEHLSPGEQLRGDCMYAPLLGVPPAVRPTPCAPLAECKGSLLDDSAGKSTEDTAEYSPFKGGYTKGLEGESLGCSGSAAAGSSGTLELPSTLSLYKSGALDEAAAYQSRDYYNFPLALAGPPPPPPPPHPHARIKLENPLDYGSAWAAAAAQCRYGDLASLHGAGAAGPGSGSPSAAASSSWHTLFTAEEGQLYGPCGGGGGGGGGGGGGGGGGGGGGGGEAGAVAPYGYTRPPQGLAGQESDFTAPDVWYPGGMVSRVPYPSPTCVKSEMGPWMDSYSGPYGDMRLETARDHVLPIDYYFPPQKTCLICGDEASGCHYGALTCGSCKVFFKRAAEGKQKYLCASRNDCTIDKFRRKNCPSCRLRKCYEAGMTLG
Protocol: Figure S3. […] (A) SNU475 cells were treated with 10 µM of each
compound for 24 hours before analysis by AR ELISA. (B ) (Left) Cellular invasion assay was performed on SNU475
Mean + SD One way ANOVA with
(Right) Cell viability was
(1 picture or pasted object on this page, not shown here)

[9] = Plasma stability, human plasma; assay type: in vitro ADME
Protocol: (§2) Samples were taken at 0, 30, 60, 120, 180, and 360 min to quantitate the disappearance of the valine conjugates and appearance of a cleaved parent. The matrix stability assay in plasma and the quantitative analysis of samples by UV-VIS HPLC were performed according to the standard protocol at Charles River Laboratories, Inc. (Wilmington, MA, USA).

[10] = Plasma stability, murine plasma; assay type: in vitro ADME, mouse
Protocol: as §2

[11] = IV, 2 mg/kg (valine conjugates 2 mg/kg EQV)
[12] = IV, 2 mg/kg (valine conjugates 2 mg/kg EQV), non-compartmental analysis
[13] = PO, 40 mg/kg (valine conjugates 40 mg/kg EQV)
[14] = iv, 2 mg/kg, IV, 2 mg/kg (valine conjugates 2 mg/kg EQV), analyte = dosed compound, non-compartmental analysis, read-out: AUCall, Geo Mean
[15] = iv, 2 mg/kg, IV, 2 mg/kg (valine conjugates 2 mg/kg EQV), read-out: Cmax, Geo Mean
[16] = po, 40 mg/kg, PO, 40 mg/kg (valine conjugates 40 mg/kg EQV), analyte = dosed compound, non-compartmental analysis, read-out: AUCall, Geo Mean
[17] = po, 40 mg/kg, PO, 40 mg/kg (valine conjugates 40 mg/kg EQV), read-out: Cmax, Geo Mean

With `O=C(Nc1ccc(C(F)(F)F)cc1Cl)c1cc(Cl)ccc1O` [compound #7] as the molecule, how does the IC50 ([1]; Hepatocyte, 72 h) read?
The IC50 was greater than 30000 nM.

And the “HL_Lambda_z, Geo Mean” value [2, 11]?
Its value is 4.85 h.

And the “IV: Clobs, Geo Mean” value [2, 12]?
The value was 0.04 L/h.

What about the “HL_Lambda_z, Geo Mean” value [2, 13] of the same molecule?
Its value is 3.58 h.

And the “PO: Cl_Fobs, Geo Mean” value [2, 13]?
The value was 0.21 L/h.

What about the “Expected plasma levels for up to 8 h post-dose” value ([2]; linearly scaled from PK data, BID 75 mg/kg niclosamide, 105.7 mg/kg valine–niclosamide, 87.3 mg/kg valine–compound #7, 62.9 mg/kg compound #7) of the same molecule?
Its value is 0.86 µM.

And the AUC [2, 14]?
Its AUC is 3.7 µM·h.

What about the Cmax [2, 15] of the same molecule?
The Cmax was 6.98 µM.

And the AUC ([2]; po, 40 mg/kg, PO 40 mg/kg of the parent compound, read-out: AUCall following an oral dose of the unconjugated compound)?
The AUC was 13 µM·h.

And the Cmax ([2]; po, 40 mg/kg, PO 40 mg/kg of the parent compound, read-out: Cmax following an oral dose of the unconjugated compound)?
Its Cmax is 5.78 µM.

And the AUC [2, 16]?
The AUC was 13 µM·h.

And the Cmax [2, 17]?
The Cmax was 5.79 µM.

And the Tmax [2, 11]?
Its Tmax is 4.8 min.

And the Tmax [2, 13]?
The Tmax was 15 min.

And the clearance [2]?
The clearance was 0.667 mL/min.

And the IC50 ([3]; Homo sapiens, HepG2, 72 h)?
Its IC50 is 450 nM.

What about the IC50 [4] of the same molecule?
The IC50 was 6600 nM.

What about the IC50 ([4]; Homo sapiens, SNU-475, 72 h) of the same molecule?
Its IC50 is 4000 nM.

And the IC50 [5]?
The IC50 was 280 nM.

What about the “Cell viability within hollow fibers (MTT assay)” value [6] of the same molecule?
The value was “no differences in cell viability”.

What about the IC50 [7] of the same molecule?
Its IC50 is 310 nM.

What about the “Decrease of AR protein levels compared to enzalutamide and sorafenib” value [8] of the same molecule?
Its value is “more effectively decrease AR protein levels”.

For `CC(C)[C@H](N)C(=O)OCCOCn1cnc2c(=O)[nH]c(N)nc21` [valacyclovir], which “Formation of the cleaved parent” value ([9]; 360 min) is on record?
The value was “readily detectable acyclovir”.

And the “Percentage of pro-drug remaining intact” value ([9]; 6 h (360 min))?
The value was 66.4%.

And the “Formation of the cleaved parent” value ([10]; 360 min)?
Its value is “readily detectable acyclovir”.

What about the “Percentage of pro-drug remaining intact” value ([10]; 6 h (360 min)) of the same molecule?
The value was 37.7%.

Which results are given for `O=C(Nc1ccc(C(F)(F)F)cc1)c1cc(Cl)ccc1O` [compound #11]?
IC50 ([1]; listed as Compound #11): 9470 nM; IC50 ([1]; Hepatocyte, 72 h): 9500 nM; HL_Lambda_z, Geo Mean [2, 11]: 0.96 h; IV: Clobs, Geo Mean [2, 12]: 0.03 L/h; HL_Lambda_z, Geo Mean [2, 13]: 2.68 h; PO: Cl_Fobs, Geo Mean [2, 13]: 0.35 L/h; AUC [2, 14]: 5.06 µM·h; Cmax [2, 15]: 11.3 µM; AUC [2, 16]: 7.98 µM·h; Cmax [2, 17]: 6.08 µM; AUC ([2]; po, 40 mg/kg, single PO dose, 40 mg/kg or molar equivalent, analyte = dosed compound, read-out: AUCall following an oral dose): 7.98 µM·h; Tmax [2, 11]: 4.8 min; Tmax [2, 13]: 25.2 min; clearance [2]: 0.5 mL/min; IC50 ([3]; listed as Compound #11): 1860 nM; IC50 ([3]; Homo sapiens, HepG2, 72 h): 1900 nM; IC50 [4]: 7200 nM; IC50 ([4]; listed as Compound #11): 890 nM; IC50 [5]: 580 nM; IC50 [7]: 560 nM; Decrease of AR protein levels compared to enzalutamide and sorafenib [8]: more effectively decrease AR protein levels
